The values below are quoted from earlier work in PMC2764006 (Journal of molecular biology, 2009).

For the series the following is noted: single-molecule FRET.

Take polyproline: the persistence length lp was 44 Å.
